Assay results published in US5840684A, “Glycopeptide antibiotic derivatives” (Eli Lilly and Company, priority 1995, dated 1998).
≈ marks a conversion by molar mass, not a printed value.

Key:
[1] = tested on: Staphylococcus aureus S13E; assay type: cell-based
Procedure: (§1) The MIC's were determined using a standard broth micro-dilution assay.

[2] = tested on: Entercoccus faecium 180-1; assay: broth micro-dilution MIC; assay type: cell-based
Procedure: as §1

[3] = tested on: Entercoccus faecium 276; assay: broth micro-dilution MIC; assay type: cell-based
Procedure: as §1

[4] = tested on: Staphylococcus aureus 446; assay: broth micro-dilution MIC; assay type: cell-based
Procedure: as §1

[5] = tested on: Staphylococcus aureus 447; assay: broth micro-dilution MIC; assay type: cell-based
Procedure: as §1

[6] = tested on: Staphylococcus aureus 489; assay: broth micro-dilution MIC; assay type: cell-based
Procedure: as §1

[7] = tested on: Staphylococcus aureus 491; assay: broth micro-dilution MIC; assay type: cell-based
Procedure: as §1

[8] = tested on: Staphylococcus aureus SA1199A; assay: broth micro-dilution MIC; assay type: cell-based
Procedure: as §1

[9] = tested on: Staphylococcus aureus SA1199; assay: broth micro-dilution MIC; assay type: cell-based
Procedure: as §1

[10] = tested on: Staphylococcus aureus X400; assay: broth micro-dilution MIC; assay type: cell-based
Procedure: as §1

[11] = tested on: Staphylococcus aureus X778; assay: broth micro-dilution MIC; assay type: cell-based
Procedure: as §1

[12] = tested on: Streptococcus pyogenes C203; assay: broth micro-dilution MIC; assay type: cell-based
Procedure: as §1

[13] = tested on: Entercoccus faecium 180; assay: broth micro-dilution MIC; assay type: cell-based; settings: Entercoccus faecium 180
Procedure: (§2) The formula I compounds have in vitro and in vivo activity against Gram-positive pathogenic bacteria. The MIC's were determined using a standard broth micro-dilution assay.

[14] = tested on: Entercoccus faecium 2041; assay: broth micro-dilution MIC; assay type: cell-based; settings: Entercoccus faecium 2041
Procedure: as §2

[15] = tested on: Enterococcus gallinarum 245; assay: broth micro-dilution MIC; assay type: cell-based; settings: Enterococcus gallinarum 245
Procedure: as §2

[16] = tested on: Staphylococcus haemolyticus 105; assay: broth micro-dilution MIC; assay type: cell-based
Procedure: as §2

[17] = tested on: Staphylococcus haemolyticus 415; assay: broth micro-dilution MIC; assay type: cell-based
Procedure: as §2

[18] = tested on: Streptococcus pneumoniae P1; assay: broth micro-dilution MIC; assay type: cell-based
Procedure: as §2

[19] = tested on: Stapylococcus aureus; assay: mouse protection, experimentally-induced infection; assay type: in vivo; settings: mice infected with Stapylococcus aureus, two doses
[20] = tested on: Streptococcus pyogenes; assay: mouse protection, experimentally-induced infection; assay type: in vivo; settings: mice infected with Streptococcus pyogenes, two doses
[21] = tested on: Streptococcus pneumoniae; assay: mouse protection, experimentally-induced infection; assay type: in vivo; settings: mice infected with Streptococcus pneumoniae, two doses
[22] = tested on: vancomycin-resistant enterococci; assay: broth micro-dilution, mean geometric MIC; assay type: cell-based, Enterococcus faecium and Enterococcus faecalis; settings: enterococci, 24-hour incubation
[23] = tested on: vancomycin-susceptible enterococci; assay: broth micro-dilution, mean geometric MIC; assay type: cell-based, Enterococcus faecium and Enterococcus faecalis; settings: enterococci, 24-hour incubation
[24] = tested on: Pediococcus acidilacti; assay: agar dilution MIC, lactic acid bacteria; assay type: cell-based; settings: Pediococcus acidilacti (mean of 10), brain-heart infusion agar
[25] = tested on: Pediococcus pentosaceus; assay: agar dilution MIC, lactic acid bacteria; assay type: cell-based; settings: Pediococcus pentosaceus (mean of 2), brain-heart infusion agar
[26] = tested on: Leuconostoc lactis; assay: agar dilution MIC, lactic acid bacteria; assay type: cell-based; settings: Leuconostoc lactis (mean of 2), brain-heart infusion agar
[27] = tested on: Leuconostoc pseudomesenteroides; assay: agar dilution MIC, lactic acid bacteria; assay type: cell-based; settings: brain-heart infusion agar
[28] = tested on: Leuconostoc citreum; assay: agar dilution MIC, lactic acid bacteria; assay type: cell-based; settings: brain-heart infusion agar
[29] = tested on: Staphylococcus aureus SA1199B; assay type: cell-based
Procedure: as §1

[30] = tested on: Leuconostoc mesenteroides; assay: agar dilution MIC, lactic acid bacteria; assay type: cell-based; settings: Leuconostoc mesenteroides (mean of 4), brain-heart infusion agar
[31] = tested on: Lactobacillus confusus; assay: agar dilution MIC, lactic acid bacteria; assay type: cell-based; settings: Lactobacillus confusus, brain-heart infusion agar
[32] = tested on: Staphylococcus epidermidis 270; assay: broth micro-dilution MIC; assay type: cell-based
Procedure: as §2

| Structure (SMILES) | MIC [1] [µg/mL] | MIC [2] [µg/mL] | MIC [3] [µg/mL] | MIC [8] | MIC [9] [µg/mL] | MIC [10] [µg/mL] | MIC [12] [µg/mL] | MIC [14] [µg/mL] | MIC [15] [µg/mL] | MIC [16] [µg/mL] | MIC [17] [µg/mL] | MIC [18] [µg/mL] | ED50 [19] [mg/kg/2] | ED50 [20] [mg/kg/2] | ED50 [21] [mg/kg/2] | mean geometric MIC, Vancomycin Resistant Strains [22] [µg/mL] | mean geometric MIC, Vancomycin Sensitive Strains [23] [µg/mL] | MIC [24] [µg/mL] | MIC [25] [µg/mL] | MIC [26] [µg/mL] | also measured |
| --- | --- | --- | --- | --- | --- | --- | --- | --- | --- | --- | --- | --- | --- | --- | --- | --- | --- | --- | --- | --- | --- |
| CNC(CC(C)C)C(=O)NC1C(=O)NC(CC(N)=O)C(=O)NC2C(=O)NC3C(=O)NC(C(=O)NC(C(=O)O)c4cc(O)cc(O)c4-c4cc3ccc4O)C(OC3CC(C)(N)C(O)C(C)O3)c3ccc(c(Cl)c3)Oc3cc2cc(c3OC2OC(CO)C(O)C(O)C2OC2CC(C)(NCc3ccc4ccccc4c3)C(O)C(C)O2)Oc2ccc(cc2Cl)C1O (stereo not shown) [Compound 1] | 0.125 (≈ 0.0721 µM) | ≤ 0.06 | ≤ 0.06 | ≤ 0.06 µg/mL | ≤ 0.06 | ≤ 0.06 | ≤ 0.06 | 0.125 (≈ 0.0721 µM) | 4 (≈ 2.31 µM) | 4 (≈ 2.31 µM) | 4 (≈ 2.31 µM) | ≤ 0.06 | 0.086 | 0.052 | 0.025 | 0.25 | 0.0061 | 18 (≈ 10.4 µM) | 23 (≈ 13.3 µM) | 23 (≈ 13.3 µM) | MIC [4]: ≤ 0.06 µg/mL; MIC [5]: ≤ 0.06 µg/mL; MIC [6]: ≤ 0.06 µg/mL; MIC [7]: 2 µg/mL (≈ 1.15 µM); MIC [11]: 0.125 µg/mL (≈ 0.0721 µM); MIC [13]: 0.5 µg/mL (≈ 0.289 µM); MIC [27]: > 128 µg/mL; MIC [28]: > 128 µg/mL |
| CNC(CC(C)C)C(=O)NC1C(=O)NC(CC(N)=O)C(=O)NC2C(=O)NC3C(=O)NC(C(=O)NC(C(=O)O)c4cc(O)cc(O)c4-c4cc3ccc4O)C(OC3CC(C)(N)C(O)C(C)O3)c3ccc(c(Cl)c3)Oc3cc2cc(c3OC2OC(CO)C(O)C(O)C2OC2CC(C)(NCc3ccc(Sc4ccccc4)cc3)C(O)C(C)O2)Oc2ccc(cc2Cl)C1O (stereo not shown) [Compound 108] | 1 (≈ 0.558 µM) | ≤ 0.06 | 0.5 (≈ 0.279 µM) | ≤ 0.06 µg/mL | 2 (≈ 1.12 µM) | 2 (≈ 1.12 µM) | ≤ 0.06 | ≤ 0.06 | ≤ 0.06 | 2 (≈ 1.12 µM) | 1 (≈ 0.558 µM) | ≤ 0.06 |  | 0.046 | 0.041 | 0.84 | 0.04 | 12 (≈ 6.7 µM) | 23 (≈ 12.8 µM) | 8.0 (≈ 4.47 µM) | MIC [29]: 2 µg/mL (≈ 1.12 µM); MIC [4]: 2 µg/mL (≈ 1.12 µM); MIC [5]: 0.5 µg/mL (≈ 0.279 µM); MIC [30]: 10 µg/mL (≈ 5.58 µM); MIC [27]: 32 µg/mL (≈ 17.9 µM); MIC [31]: 16 µg/mL (≈ 8.93 µM) |
| CNC(CC(C)C)C(=O)NC1C(=O)NC(CC(N)=O)C(=O)NC2C(=O)NC3C(=O)NC(C(=O)NC(C(=O)O)c4cc(O)cc(O)c4-c4cc3ccc4O)C(OC3CC(C)(N)C(O)C(C)O3)c3ccc(c(Cl)c3)Oc3cc2cc(c3OC2OC(CO)C(O)C(O)C2OC2CC(C)(NCc3cccc4c3oc3ccccc34)C(O)C(C)O2)Oc2ccc(cc2Cl)C1O (stereo not shown) [Compound 39] | ≤ 0.06 | ≤ 0.06 | ≤ 0.06 |  | ≤ 0.06 | ≤ 0.06 | ≤ 0.06 | ≤ 0.06 | ≤ 0.06 | 2 (≈ 1.13 µM) | 4 (≈ 2.26 µM) | ≤ 0.06 | 0.1 | 0.045 | < 0.031 | 1.2 | 0.09 | 26 (≈ 14.7 µM) | 32 (≈ 18.1 µM) | 32 (≈ 18.1 µM) | MIC [29]: ≤ 0.06 µg/mL; MIC [11]: ≤ 0.06 µg/mL; MIC [13]: 0.5 µg/mL (≈ 0.282 µM); MIC [30]: 32 µg/mL (≈ 18.1 µM); MIC [31]: 32 µg/mL (≈ 18.1 µM) |
| CNC(CC(C)C)C(=O)NC1C(=O)NC(CC(N)=O)C(=O)NC2C(=O)NC3C(=O)NC(C(=O)NC(C(=O)O)c4cc(O)cc(O)c4-c4cc3ccc4O)C(OC3CC(C)(N)C(O)C(C)O3)c3ccc(c(Cl)c3)Oc3cc2cc(c3OC2OC(CO)C(O)C(O)C2OC2CC(C)(NCc3ccc(-c4ccccc4)cc3)C(O)C(C)O2)Oc2ccc(cc2Cl)C1O (stereo not shown) [Compound 2, p-phenylbenzyl·A82846B] | ≤ 0.06 | ≤ 0.06 | 0.5 (≈ 0.284 µM) | ≤ 0.06 µg/mL | 0.5 (≈ 0.284 µM) | 1 (≈ 0.569 µM) | ≤ 0.06 | 0.125 (≈ 0.0711 µM) | ≤ 0.06 | 2 (≈ 1.14 µM) | 1 (≈ 0.569 µM) | ≤ 0.06 | 0.27 | 0.014 | 0.025 | 0.044 | 0.00038 | 5.9 (≈ 3.35 µM) | 11 (≈ 6.25 µM) | 4.0 (≈ 2.27 µM) | MIC [29]: ≤ 0.06 µg/mL; MIC [4]: ≤ 0.06 µg/mL; MIC [5]: ≤ 0.06 µg/mL; MIC [7]: ≤ 0.06 µg/mL; MIC [11]: ≤ 0.06 µg/mL; MIC [32]: 8 µg/mL (≈ 4.55 µM); MIC [30]: 16 µg/mL (≈ 9.1 µM); MIC [27]: 32 µg/mL (≈ 18.2 µM); MIC [31]: 16 µg/mL (≈ 9.1 µM) |
| CNC(CC(C)C)C(=O)NC1C(=O)NC(CC(N)=O)C(=O)NC2C(=O)NC3C(=O)NC(C(=O)NC(C(=O)O)c4cc(O)cc(O)c4-c4cc3ccc4O)C(OC3CC(C)(N)C(O)C(C)O3)c3ccc(c(Cl)c3)Oc3cc2cc(c3OC2OC(CO)C(O)C(O)C2OC2CC(C)(NCc3ccc(OC(F)(F)F)cc3)C(O)C(C)O2)Oc2ccc(cc2Cl)C1O (stereo not shown) [Compound 6] |  | ≤ 0.06 | ≤ 0.06 | ≤ 0.06 µg/mL |  |  | ≤ 0.06 | ≤ 0.06 | ≤ 0.06 | 0.5 (≈ 0.283 µM) | 0.5 (≈ 0.283 µM) | ≤ 0.06 | 0.15 | 0.013 | 0.021 | 1.2 | 0.14 | 4.3 (≈ 2.43 µM) | 8.0 (≈ 4.53 µM) | 8.0 (≈ 4.53 µM) | MIC [4]: 0.5 µg/mL (≈ 0.283 µM); MIC [5]: 0.5 µg/mL (≈ 0.283 µM); MIC [30]: 9.5 µg/mL (≈ 5.38 µM); MIC [27]: 16 µg/mL (≈ 9.06 µM); MIC [31]: 16 µg/mL (≈ 9.06 µM) |
| CN[C@H](CC(C)C)C(=O)N[C@H]1C(=O)N[C@@H](CC(N)=O)C(=O)N[C@H]2C(=O)N[C@H]3C(=O)N[C@H](C(=O)N[C@H](C(=O)O)c4cc(O)cc(O)c4-c4cc3ccc4O)[C@H](O[C@H]3C[C@](C)(N)[C@@H](O)[C@H](C)O3)c3ccc(c(Cl)c3)Oc3cc2cc(c3O[C@@H]2O[C@H](CO)[C@@H](O)[C@H](O)[C@H]2O[C@H]2C[C@](C)(N)[C@@H](O)[C@H](C)O2)Oc2ccc(cc2Cl)[C@H]1O [Compound A82846B, A82846B, reference compound] | 0.125 (≈ 0.0785 µM) | 0.125 (≈ 0.0785 µM) | 0.125 (≈ 0.0785 µM) | ≤ .06 µg/mL | 0.125 (≈ 0.0785 µM) | 0.125 (≈ 0.0785 µM) |  |  |  | 1 (≈ 0.628 µM) | 4 (≈ 2.51 µM) |  | 0.25 | 0.12 | 0.18 | 29 | 0.22 | 141 (≈ 88.5 µM) | > 256 |  | MIC [29]: 0.125 µg/mL (≈ 0.0785 µM); MIC [6]: ≤ .06 µg/mL; MIC [11]: 0.125 µg/mL (≈ 0.0785 µM); MIC [13]: 8 µg/mL (≈ 5.02 µM); MIC [30]: > 256 µg/mL; MIC [27]: > 256 µg/mL; MIC [28]: > 256 µg/mL; MIC [31]: > 256 µg/mL |
